Reference: patent publication US6294526A, “Use of flavone derivatives for induction of β-lactam-sensitivity of MRSA” (priority 1998, dated 2001)
In brackets after ≈: the same amount, converted by molar mass. Where two headings read alike, the source gives them in different places.

Key:
[1] = test system: MRSA; experiment: antibacterial activity (MIC) by agar plate dilution method, MRSA strains; type: cell-based, methicillin-resistant Staphylococcus aureus; conditions: Staphylococcus aureus, 20 h
Procedure: (§1) The screening of the present invention may be carried out according to the agar plate dilution method designated by the Japan Society of Chemotherapy (Chemotherapy 29(1), 76-79 (1981)). Mueller-Hinton agar base semi-synthetic medium may be used for a plate culture medium for a sensitivity test together with an inoculating bacteria solution which may be prepared by culturing bacteria to be tested at 37° C. for 20 hours diluted with 8.5% by isotonic sodium chloride solution to 10^6 CFU/ml. Diluted β-lactam solutions are prepared by two times serial dilution. 1 ml of the diluted β-lactam solution and 1 ml of a predetermined concentration of a sample to be tested are added to 8 ml of the plate culture medium for a sensitivity test. To the resultant plate culture medium for sensitivity test, the bacteria are inoculated using a microplanter (SAKUMASEISAKUSYO Co.), cultured for 20 hours at 37° C. followed by assessing for a minimum inhibition concentration (MIC).
(§2) (A) Antibacterial activities of ether extract from Scutellaria barbata, SB-1 (isolated from Scutellaria barbata), apigenin (authentic sample) and luteolin (authentic sample) were shown in Table 1.
(§3) Flavones were dissolved in methanol and the others were dissolved in 0.1 N NaOH. A method for determination of antibacterial activity is, as described above, an agar plate dilution method designated by the Japan Society of Chemotherapy (Chemotherapy 29(1), 76-79 (1981)) to determine MIC value. MIC80 is a concentration at which a strain is prohibited to proliferate by 80% and MIC50 is a concentration at which a strain is prohibited to proliferate by 50%.

[2] = test system: MSSA; experiment: antibacterial activity (MIC) by agar plate dilution method, MSSA strains; type: cell-based, Methicillin-sensitive Staphylooccus aureus; conditions: Staphylococcus aureus, 20 h
Procedure: as §1, §2, §3

[3] = test system: MRSA and MSSA; experiment: antibacterial activity (MIC) by agar plate dilution method, MRSA and MSSA strains together; type: cell-based, Staphylococcus aureus; conditions: for antibacterial activity (in words): Table 2; for MIC: Staphylococcus aureus, 20 h, read-out: MIC values (text summary of Table 2)
Procedure: as §1, with “(MIC). […]” for “(MIC).”
Antibacterial activity is determined for flavones including flavone, flavonol, flavanone, isoflavone, catechin and calchone, as follows:
as §3

[4] = test system: MRSA; experiment: antibacterial activity of antibiotics alone and in the presence of apigenin (4 μg/ml), MRSA; type: cell-based, methicillin-resistant Staphylococcus aureus; conditions: Staphylococcus aureus, MRSA, 20 h
Procedure: as §1
(D) Then use of 4 μg/ml of apigenin and other antibiotics at the same time was studied. The antibiotics are penicillin , ampicillin, cephalothin, cefoxitin, cefuroxime, cefotaxime, vancomycin, streptomycin, chloramphenicol, kanamycin, erythromycin, nalixic acid and tetracycline.

[5] = test system: MRSA No. 5; experiment: effect of flavone on antibacterial activity of antibiotics against MRSA No. 5 in bouillon (broth microdilution); type: cell-based, methicillin-resistant Staphylococcus aureus
Procedure: Alternatively, the screening of the present invention may be carried out according to the broth microdilution method designated by the Japan Society of Chemotherapy (Chemotherapy 38(1), 102-105 (1990)). Muellar-Hinton broth is used as a culture medium for the sensitivity test, and 50 mg/ml of calcium(Ca) ion, 25 mg/ml of magnesium(Mg) ion, and 2% sodium chloride (NaCl) are added thereto. An inoculating bacteria solution may be prepared by culturing bacteria to be tested in Mueller-Hinton broth at 37° C. for 20 hours and diluting with Mueller-Hinton broth to 10^5 CFU/ml final concentration of inoculating bacteria. Diluted β-lactam solution is prepared by two times serial dilution series. 10 μl of the diluted β-lactam solution and 10 μl of a predetermined concentration of a sample of bacteria to be tested are added to mix with 80 μl of the culture medium for the sensitivity test. To the resultant plate culture medium for sensitivity test, the inoculating bacteria are added and culturing is carried out for 20 hours at 37° C. and then assessment for a minimum inhibition concentration (MIC) is carried out. A minimum inhibition concentration means the minimum concentration of β-lactam at which growth of bacteria is not recognized by the naked eye.
(G) Antibacterial activity of 6 β-lactams, that is, cephalothin, cefuroxime, cefotaxime, cefoxitin, streptomycin and vancomycin, against MRSA in the presence of 0.5 mM flavone was studied in bouillon.
Muellar-Hinton broth was used as a culture medium for the sensitivity test, and 50 mg/ml of calcium (Ca) ion, 25 mg/ml of maqnesium (Mg) ion, 2% sodium chloride (NaCl) were added thereto. An inoculating bacteria solution was prepared by culturing bacteria to be tested with Mueller-Hinton broth at 37° C. for 20 hours and diluting with Mueller-Hinton broth to 10^5 CFU/ml final concentration of inoculating bacteria. Diluted β-lactam solutions were prepared in two times serial dilutions starting from 10 mM. Ten microliters of the diluted β-lactam solution and 10 μl of 5 mM of flavone were mixed with 80 μl of the culture medium for the sensitivity test in a microplate having U-shaped wells and samples of bacteria to be tested were added thereto. The mixture was cultured 20 hours at 37° C. and then assessed for minimum inhibition concentration (MIC). Minimum inhibition concentration means minimum concentration of a β-lactum at which growth of bacteria is inhibited to the extent that bacteria is not recognized by the naked eye.

[6] = MRSA (20 strains), read-out: MIC50
[7] = MSSA (7 strains), read-out: MIC50
[8] = MSSA, MSSA (7 strains), range over strains, read-out: MIC
[9] = antibiotic with Apigenin (4 μg/ml)

O=C1C[C@@H](c2ccc(O)c(O)c2)Oc2cc(O)cc(O)c21 [Eriodictyol, eriodictyol] was tested, and the MIC50 [1, 6] was 250 µg/mL (≈ 867 µM), the MIC ([1]; MRSA, MRSA (20 strains), range over strains, read-out: MIC) was 250 µg/mL (≈ 867 µM) and the MIC50 [2, 7] was 250 µg/mL (≈ 867 µM). For the same compound, the MIC [2, 8] was 250 µg/mL (≈ 867 µM), the “antibacterial activity (in words)” value ([3]; MRSA and MSSA) was “showed antibacterial activity” and the MIC ([3]; MRSA and MSSA, "in each case") was 250 µg/mL (≈ 867 µM).

O=c1c(O)c(-c2ccc(O)cc2)oc2cc(O)cc(O)c12 [Kaempferol, kaempferol] was tested, and the MIC50 [1, 6] was 250 µg/mL (≈ 873 µM), the MIC50 [2, 7] was 250 µg/mL (≈ 873 µM) and the “antibacterial activity (in words)” value ([3]; MRSA and MSSA) was “showed antibacterial activity”. For the same compound, the “antibacterial activity (in words)” value ([3]; MRSA and MSSA, listed as kaemferol) was “showed activity” and the MIC ([3]; MRSA and MSSA, "in each case") was 250 µg/mL (≈ 873 µM).

Work on O=c1cc(-c2ccc(O)c(O)c2)oc2cc(O)cc(O)c12 [Luteolin, luteolin] yielded an MIC50 ([1]; MRSA) of 125 µg/mL (≈ 437 µM), an MIC ([1]; MRSA, MRSA (20 strains), range over strains) of 62.5 to 125 µg/mL (≈ 218 to 437 µM) and an MIC ([1]; MRSA, MRSA strain No. 1) of 125 µg/mL (≈ 437 µM). The MIC ([1]; MRSA, MRSA strain No. 2) was 125 µg/mL (≈ 437 µM), the MIC ([1]; MRSA, MRSA strain No. 3) was 125 µg/mL (≈ 437 µM) and the MIC ([1]; MRSA, MRSA strain No. 4) was 125 µg/mL (≈ 437 µM). For the same compound, the MIC ([1]; MRSA, MRSA strain No. 5) was 62.5 µg/mL (≈ 218 µM), the MIC ([1]; MRSA, MRSA strain No. 6) was 62.5 µg/mL (≈ 218 µM) and the MIC ([1]; MRSA, MRSA strain No. 7) was 62.5 µg/mL (≈ 218 µM). For the same compound, the MIC ([1]; MRSA, MRSA strain No. 8) was 62.5 µg/mL (≈ 218 µM), the MIC ([1]; MRSA, MRSA strain No. 9) was 62.5 µg/mL (≈ 218 µM) and the MIC ([1]; MRSA, MRSA strain No. 10) was 62.5 µg/mL (≈ 218 µM). The MIC ([1]; MRSA, MRSA strain No. 11) was 125 µg/mL (≈ 437 µM), the MIC ([1]; MRSA, MRSA strain No. 12) was 125 µg/mL (≈ 437 µM) and the MIC ([1]; MRSA, MRSA strain No. 13) was 62.5 µg/mL (≈ 218 µM). For the same compound, the MIC ([1]; MRSA, MRSA strain No. 14) was 125 µg/mL (≈ 437 µM), the MIC ([1]; MRSA, MRSA strain No. 15) was 125 µg/mL (≈ 437 µM) and the MIC ([1]; MRSA, MRSA strain No. 16) was 125 µg/mL (≈ 437 µM). The MIC ([1]; MRSA, MRSA strain No. 17) was 125 µg/mL (≈ 437 µM), the MIC ([1]; MRSA, MRSA strain No. 18) was 125 µg/mL (≈ 437 µM) and the MIC ([1]; MRSA, MRSA strain No. 19) was 125 µg/mL (≈ 437 µM). It also gave an MIC ([1]; MRSA, MRSA strain No. 20) of 62.5 µg/mL (≈ 218 µM), an MIC50 ([2]; MSSA) of 125 µg/mL (≈ 437 µM) and an MIC ([2]; MSSA, MSSA (7 strains), range over strains) of 62.5 to 125 µg/mL (≈ 218 to 437 µM). For the same compound, the MIC ([2]; MSSA, MSSA strain No. 21) was 125 µg/mL (≈ 437 µM), the MIC ([2]; MSSA, MSSA strain No. 22) was 125 µg/mL (≈ 437 µM) and the MIC ([2]; MSSA, MSSA strain No. 23) was 62.5 µg/mL (≈ 218 µM). It also gave an MIC ([2]; MSSA, MSSA strain No. 24) of 62.5 µg/mL (≈ 218 µM), an MIC ([2]; MSSA, MSSA strain No. 25) of 125 µg/mL (≈ 437 µM) and an MIC ([2]; MSSA, MSSA strain No. 26) of 125 µg/mL (≈ 437 µM). The MIC ([2]; MSSA, MSSA strain No. 27) was 62.5 µg/mL (≈ 218 µM) and the “antibacterial activity (in words)” value ([3]; MRSA and MSSA) was “showed antibacterial activity”.

O=C(CCc1ccc(O)cc1)c1c(O)cc(O)cc1O [Phloretin, phloretin] gave an MIC50 [1, 6] of 250 µg/mL (≈ 912 µM), an MIC50 [2, 7] of 125 µg/mL (≈ 456 µM) and an MIC [2, 8] of 125 to 250 µg/mL (≈ 456 to 912 µM). The “antibacterial activity (in words)” value ([3]; MRSA and MSSA) was “showed activity”, the “antibacterial activity (in words)” value ([3]; MRSA and MSSA, listed as phioretin) was “showed antibacterial activity” and the MIC ([3]; MRSA and MSSA, "in each case") was 250 µg/mL (≈ 912 µM).

O=c1c(O)c(-c2ccc(O)c(O)c2)oc2cc(O)cc(O)c12 [Quercetin, quercetin] was tested, and the MIC50 ([1]; MRSA) was 250 µg/mL (≈ 827 µM), the MIC50 [2, 7] was 250 µg/mL (≈ 827 µM) and the “antibacterial activity (in words)” value ([3]; MRSA and MSSA) was “showed antibacterial activity”. The MIC [3] was 250 µg/mL (≈ 827 µM).

With COc1cc(O)c2c(c1)OC(c1ccc(O)cc1)CC2=O (stereo not drawn) [Sakranetin, sakranetin] the MIC50 [1, 6] was 125 µg/mL (≈ 437 µM), the MIC50 [2, 7] was greater than 250 µg/mL and the “antibacterial activity (in words)” value ([3]; MRSA and MSSA) was “showed antibacterial activity”. The MIC ([3]; MRSA and MSSA, "in each case") was 250 µg/mL (≈ 873 µM).

CN[C@H](CC(C)C)C(=O)N[C@H]1C(=O)N[C@@H](CC(N)=O)C(=O)N[C@H]2C(=O)N[C@H]3C(=O)N[C@H](C(=O)N[C@H](C(=O)O)c4cc(O)cc(O)c4-c4cc3ccc4O)[C@H](O)c3ccc(c(Cl)c3)Oc3cc2cc(c3O[C@@H]2O[C@H](CO)[C@@H](O)[C@H](O)[C@H]2O[C@H]2C[C@](C)(N)[C@H](O)[C@H](C)O2)Oc2ccc(cc2Cl)[C@H]1O [Vancomycin, vancomycin] showed an MIC ([4]; Antibiotics alone) of 0.98 to 2 µg/mL, an MIC50 ([4]; Antibiotics alone) of 0.98 µg/mL and an MIC [4, 9] of 0.49 to 0.98 µg/mL. For the same compound, the MIC50 [4, 9] was 0.49 µg/mL, the MIC ([5]; Staphylococcus aureus, MRSA, 20 h, Concentration of flavone 0.5 mM) was less than 0.98 µM and the “inhibitory effect on resistance of MRSA No.5 (in words)” value ([5]; in the presence of flavone 0.5 mM) was “appeared not to be showed”.
